Laboratory results as given in US20160151403A1, “SMALL MOLECULE MODULATORS OF P53 FAMILY SIGNALING” (The Trustees of the University of Pennsylvania, priority 2006, published 2016).

Test system: p73 in HCT116/p53(−/−) cells
Assay: Western blot of p73 protein in HCT116/p53(-/-) cells
Type: cell-based, human
Conditions: FIG. 3F
Description: FIGS. 3A-3F show: Structures (A) of isolated compounds and summary of their effects on the p53 family and transcriptional targets (B). Cell cycle profiles of HCT/p53(+/+) and HCT/p53(−/−) in response to treatment by selected compounds (C-E). The dose of #17 was 200 μM and for #23 it was 10 μM. F, p73 protein levels were elevated in HCT116/p53(−/−) cells in response to treatment by selected compounds at various concentrations as indicated;
Cells were collected and protein concentration was quantified by the Bio-Rad protein assay prior to SDS-PAGE. Proteins were transferred to a PVDF membrane (Immobilon-P, Millipore Corporation, Bedford, Mass.) by a semi-dry transfer apparatus (Bio-Rad Laboratories, Hercules, Calif.). The membranes with transferred proteins were blotted with 10% W/V non-fat dry milk and then incubated with the primary antibody and subsequently secondary antibodies, which were labelled by horseradish peroxidase, or infrared dyes (IR). Signals were visualized by either ECL (Amersham Pharmacia Biotech, England, UK) and exposed to an X-ray film, or scanned by the Odyssey Infared Imaging System (LI-COR Biosciences, Lincoln, Nebr.). Anti-p53, DO-1, was from Santa Cruz biotechnology, Inc. (Santa Cruz, Calif.), anti-p73 (AB-1) and anti-p21 (AB-1) were obtained from Calbiochem (San Diego, Calif.). Anti-ser20 of p53 Cell were obtained from Signaling Technology (Danvers, Mass.) and anti-DR5 antibody was obtained from Cayman Chemical (Ann Arbor, Mich.).
The questioned whether the p53 family member p73 is involved in the p53-responsive transcriptional activity induced by the compounds identified was then tested. p63, the other p53 family member, was not tested, because the TA form of p63 is rarely expressed in malignant and normal tissues except for germ cells of the ovary and testis.

Compound | p73 protein expression
COc1cccc2c1C(=O)c1c(O)c3c(c(O)c1C2=O)CC(O)(/C(C)=N/O)CC3OC1CC(N)C(O)C(C)O1 (centres unmarked) [#14] | strong inducers of p73
COc1cccc2c1C(=N)c1c(O)c3c(c(O)c1C2=O)C[C@@](O)(C(C)=O)C[C@@H]3O[C@H]1C[C@H](N)[C@H](O)[C@H](C)O1 [#23] | strong inducers of p73
